# Key:
# [1] = Volatility of aqueous fumigant compositions with and without surfactant (weight loss); type: physicochemical; details: 10 grams HFPO + 4.0 grams Tween 80 in 40.0 grams water vs. 10.0 grams HFPO in 40 grams water; 20° C., vent open, weight loss every 30 seconds; FIG. 1
# Protocol: Experimentation was carried out to determine the volatility of aqueous fumigant compositions, both with and without inclusion of a surfactant. In each case, HFPO was placed in a chilled 500 ml Fischer Porter tube that was equipped with a vent to remove any gases. The vessel was cooled to 0° C. and was charged with varying amounts of water, HFPO and surfactant. The temperature was equilibrated to 20° C. and the reactor was placed on a balance. The vent tube was opened and the weight loss was recorded every 30 seconds.
# In analyzing the effects of adding surfactant to an aqueous solution of HFPO, 10.0 grams of HFPO was added to 40 grams of water. In a separate experiment, 10 grams of HFPO and 4.0 grams of Tween™ 80 were added to 40.0 grams of water. FIG. 1 provides a graphical representation of the numerical data comparing the volatility of an aqueous solution of HFPO, both with and without inclusion of the Tween™ 80 nonionic surfactant.
# [2] = tested on: Abutilon theophrasti Medik; assay: Fumigant test on seed germination in soil, Abutilon theophrasti Medik; type: in vivo; details: for Abutilon theophrastic Medik (seeds germinated): 14 seeds in soil, 2 days exposure, counted after 10 days
# Protocol: (§1) In particular, in 440 mL pressure vessels, fourteen seeds of Abutilon theophrasti Medik and fifteen seeds of Lolium multiflorum Lam were thoroughly mixed with 50 mL (approximately 30 grams) of soil and 6 ml of water. The filled vessels were kept at room temperature for 20-24 hours to allow the seeds to imbibe water before treatment. The vessels were sealed and evacuated, and then 80 ml, 160 ml and 440 ml, respectively, of gaseous HFPO was added. The vessels were thoroughly mixed and placed horizontally on the laboratory bench at ambient temperature for two days. The contents of each bottle were transferred to a plastic sterile Petri dish containing 7 mL of water. The Petri dishes were sealed with parafilm and incubated in the laboratory at ambient temperature. After 10 days, the number of germinated seeds was counted.
# Lolium multiflorum Lam = assay: Fumigant test on seed germination in soil, Lolium multiflorum Lam; type: in vivo; details: for Loliium multiflorum Lam (seeds germinated): 15 seeds in soil, 2 days exposure, counted after 10 days
# Protocol: as §1
# [3] = 80 ml gaseous HFPO in 440 mL vessel
# [4] = 160 ml gaseous HFPO in 440 mL vessel
# [5] = 440 ml gaseous HFPO in 440 mL vessel
structure (smiles),measurement,setting,value
"FC(F)(F)C1(F)OC1(F)F (stereo not drawn) [HFPO, 1,2-hexafluoropropylene oxide]",retention of HFPO in aqueous solution (volatility),[1],inclusion of the surfactant provides for longer retention of the HFPO in solution
same,Abutilon theophrastic Medik (seeds germinated),[2]; [3],0 seeds germinated
same,Abutilon theophrastic Medik (seeds germinated),[2]; [4],0 seeds germinated
same,Abutilon theophrastic Medik (seeds germinated),[2]; [5],0 seeds germinated
same,seed germination (in words),[2]; seeds of the broadleaf species Abutilon theophrasti Medik,completely prevented seed germination
same,Loliium multiflorum Lam (seeds germinated),Lolium multiflorum Lam; [3],0 seeds germinated
same,Loliium multiflorum Lam (seeds germinated),Lolium multiflorum Lam; [4],0 seeds germinated
same,Loliium multiflorum Lam (seeds germinated),Lolium multiflorum Lam; [5],0 seeds germinated
same,seed germination (in words),Lolium multiflorum Lam; seeds of the grass weed species Lolium multiflorum Lam,completely prevented seed germination
